{
  "source": "patent US20250288561A1",
  "about": "“NEZULCITINIB FOR DELIVERY BY NEBULIZED ORAL INHALATION” (THERAVANCE BIOPHARMA R&D IP, LLC, priority 2022, published 2025)",
  "key": {"Abl2": {"molecular_target": "Abl2 (Homo sapiens, UniProt P42684)", "sequence (P42684 whole entry)": "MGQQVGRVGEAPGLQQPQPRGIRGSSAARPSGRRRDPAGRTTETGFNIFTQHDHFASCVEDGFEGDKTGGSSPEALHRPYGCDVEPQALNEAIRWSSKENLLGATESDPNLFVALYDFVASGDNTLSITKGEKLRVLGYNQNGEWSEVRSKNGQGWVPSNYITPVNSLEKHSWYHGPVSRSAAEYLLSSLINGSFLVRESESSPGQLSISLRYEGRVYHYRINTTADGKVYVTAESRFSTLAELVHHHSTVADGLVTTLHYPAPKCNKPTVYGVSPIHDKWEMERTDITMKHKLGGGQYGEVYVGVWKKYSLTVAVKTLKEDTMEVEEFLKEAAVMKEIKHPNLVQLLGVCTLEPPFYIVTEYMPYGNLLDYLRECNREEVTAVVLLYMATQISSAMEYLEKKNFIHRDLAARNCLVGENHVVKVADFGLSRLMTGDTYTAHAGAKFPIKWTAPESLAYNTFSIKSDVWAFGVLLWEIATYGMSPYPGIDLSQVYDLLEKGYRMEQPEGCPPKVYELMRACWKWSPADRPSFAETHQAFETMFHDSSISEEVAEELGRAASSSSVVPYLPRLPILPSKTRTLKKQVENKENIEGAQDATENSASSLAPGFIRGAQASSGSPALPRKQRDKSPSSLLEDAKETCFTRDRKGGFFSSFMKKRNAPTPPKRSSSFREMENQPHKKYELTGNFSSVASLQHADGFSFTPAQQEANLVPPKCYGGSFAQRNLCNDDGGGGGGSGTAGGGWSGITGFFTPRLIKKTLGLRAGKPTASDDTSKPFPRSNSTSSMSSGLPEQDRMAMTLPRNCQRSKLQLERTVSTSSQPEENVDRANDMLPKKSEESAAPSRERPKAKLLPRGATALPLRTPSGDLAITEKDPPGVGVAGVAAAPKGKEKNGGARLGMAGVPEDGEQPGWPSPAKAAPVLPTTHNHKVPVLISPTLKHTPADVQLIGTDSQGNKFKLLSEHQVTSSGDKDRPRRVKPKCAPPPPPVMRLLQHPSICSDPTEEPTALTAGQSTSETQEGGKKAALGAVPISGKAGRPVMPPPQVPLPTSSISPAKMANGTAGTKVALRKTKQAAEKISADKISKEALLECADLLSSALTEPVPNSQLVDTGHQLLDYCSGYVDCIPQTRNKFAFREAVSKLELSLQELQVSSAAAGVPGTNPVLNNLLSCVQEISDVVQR", "test": "Abelson kinase inhibition", "assay_type": "biochemical"}, "[1]": {"test": "Phase 1 open-label study: safety and tolerability of single inhaled nezulcitinib doses under supplemental oxygenation scenarios", "assay_type": "in vivo, human", "source_text": "Part B: assessed the safety and tolerability of nezulcitinib following single inhaled doses administered in the setting of various supplemental oxygenation scenarios in healthy participants.\nSafety was monitored through physical examinations including, at a minimum, examination of respiratory, cardiovascular, and gastrointestinal systems, with the option for further focused examination of additional systems as necessary based on reported symptoms/AEs, vital signs, 12-lead safety ECGs, spirometry, body weight monitoring, pulse oximetry, clinical laboratory tests (including, but not limited to, hematology, clinical chemistry profile, coagulation, and urinalysis), and AEs.\nAEs were coded using the most current version of Medical Dictionary for Regulatory Activities (MedDRA®).\nSummaries of administration-emergent adverse events (AEAEs) were presented by SOC, preferred term, and the frequency and percentage of participants reporting each observed event. The frequency of participants who experience AEAEs was summarized overall and by study part and administration. AEs were also summarized by relationship to administration (study drug) and severity.\nAll clinical laboratory results, 12-lead safety ECGs, spirometry measurements, pulse oximetry, vital signs measurements, and their change from baseline, were summarized by study part, administration, and time point of collection.\nSafety (i.e., physical examinations, vital signs, 12-lead safety ECGs, spirometry, clinical laboratory tests, and AEs) were assessed throughout the study; blood, urine, and expired air samples were collected for safety assessments. Blood oxygenation levels were monitored via pulse oximetry prior to and during administration of supplemental oxygen. Discontinued participants were not replaced."}, "[2]": {"test_system": "subjects infected with COVID", "test": "Phase 2 clinical study in subjects infected with COVID: efficacy", "assay_type": "in vivo, human", "settings": "for time to recovery, median: vs placebo 11; for 28-day all-cause mortality, HR / time to recovery, HR: vs placebo", "description": "Compound 1 has been studied in a phase 2 clinical study in subjects infected with COVID.\nImportantly, in a post-hoc analysis of subjects with baseline CRP (n=201), in subjects with CRP <150 mg/L (n=171), there was an improvement in those treated with compound 1 when compared to placebo in: • 28-day all-cause mortality (total number of deaths: 1 vs 9, HR: 0.097, p=0.009). • time to recovery (median: 10 vs. 11 days, HR: 1.48, p=0.02).\nIn subjects with CRP >150 mg/L (n=30), there was no difference in time to recovery or 28-day all-cause mortality between those treated with compound 1 or placebo."}, "[3]": {"test": "Earlier phase 1 clinical trial: safety, tolerability, hematological and lipid changes", "assay_type": "in vivo, human", "description": "Compound 1 was evaluated in a phase 1 clinical trial and dosed in humans through nebulized inhalation at 1 mg, 3 mg, and 10 mg for up to 7 days. […] The pharmacokinetics of inhaled compound 1 are consistent with low plasma exposures after inhaled administration. […] Additionally, absolute NK cell counts were evaluated after multiple-dosing to assess the potential for systemic pharmacologic effects associated with JAK inhibition by compound 1. […] The lack of reduction in NK cell counts is also consistent with the lack of systemic JAK inhibition. […] Other systemically mediated hematological changes associated with JAK inhibition, including neutrophil and hemoglobin reductions as well as lipid changes, were not observed with inhaled administration of compound 1.\nThe selected dose of 3 mg in the present study was consistent with the dose in a recently completed Phase 2 study. In addition, the 3 mg dose ensured adequate characterization of the nezulcitinib PK profile. Dose levels up to 9 mg of nezulcitinib were also evaluated (Administration D2). This dose level was within the range of doses tested previously (up to 10 mg of nezulcitinib) in healthy participants and those with COVID-19 in previous clinical studies."}, "TYK2": {"molecular_target": "TYK2 (Homo sapiens, UniProt P29597)", "sequence (P29597 whole entry)": "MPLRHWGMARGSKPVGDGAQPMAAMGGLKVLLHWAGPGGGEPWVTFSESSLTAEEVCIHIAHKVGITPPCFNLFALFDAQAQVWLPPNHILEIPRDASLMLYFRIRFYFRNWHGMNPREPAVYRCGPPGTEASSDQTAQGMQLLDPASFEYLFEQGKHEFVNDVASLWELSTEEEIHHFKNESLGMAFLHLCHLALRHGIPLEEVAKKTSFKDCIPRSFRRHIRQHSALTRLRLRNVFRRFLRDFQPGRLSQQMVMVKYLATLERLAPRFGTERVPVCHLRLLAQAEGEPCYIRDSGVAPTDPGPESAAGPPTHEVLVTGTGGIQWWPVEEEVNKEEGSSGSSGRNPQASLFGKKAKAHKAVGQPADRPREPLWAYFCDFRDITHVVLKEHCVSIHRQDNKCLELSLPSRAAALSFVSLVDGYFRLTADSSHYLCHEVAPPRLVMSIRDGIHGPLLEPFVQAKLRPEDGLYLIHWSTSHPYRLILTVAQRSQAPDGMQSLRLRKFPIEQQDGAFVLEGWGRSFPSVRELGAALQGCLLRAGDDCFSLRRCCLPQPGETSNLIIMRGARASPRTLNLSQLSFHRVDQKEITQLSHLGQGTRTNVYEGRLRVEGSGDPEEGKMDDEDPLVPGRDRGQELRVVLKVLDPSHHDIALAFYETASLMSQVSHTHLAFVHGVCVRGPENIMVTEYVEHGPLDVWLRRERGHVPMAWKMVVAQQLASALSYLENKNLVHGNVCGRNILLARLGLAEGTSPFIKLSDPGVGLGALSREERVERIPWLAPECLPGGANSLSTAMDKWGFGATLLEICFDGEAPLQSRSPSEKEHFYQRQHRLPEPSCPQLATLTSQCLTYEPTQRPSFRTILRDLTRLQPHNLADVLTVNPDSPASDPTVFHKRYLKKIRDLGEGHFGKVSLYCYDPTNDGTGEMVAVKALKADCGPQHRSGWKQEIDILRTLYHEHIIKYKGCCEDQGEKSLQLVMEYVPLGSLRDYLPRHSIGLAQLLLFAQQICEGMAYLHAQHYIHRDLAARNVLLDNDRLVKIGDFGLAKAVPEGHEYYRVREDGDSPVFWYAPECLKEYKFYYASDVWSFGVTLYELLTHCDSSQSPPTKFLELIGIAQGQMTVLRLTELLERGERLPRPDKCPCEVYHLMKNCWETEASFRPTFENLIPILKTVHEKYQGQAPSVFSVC", "test": "JAK enzyme inhibition", "assay_type": "biochemical"}, "IL-6 signaling": {"test_system": "IL-6 signaling", "test": "Inhibition of cytokine signaling", "assay_type": "cell-based"}, "JAK2": {"molecular_target": "JAK2 (Homo sapiens, UniProt O60674)", "sequence (O60674 whole entry)": "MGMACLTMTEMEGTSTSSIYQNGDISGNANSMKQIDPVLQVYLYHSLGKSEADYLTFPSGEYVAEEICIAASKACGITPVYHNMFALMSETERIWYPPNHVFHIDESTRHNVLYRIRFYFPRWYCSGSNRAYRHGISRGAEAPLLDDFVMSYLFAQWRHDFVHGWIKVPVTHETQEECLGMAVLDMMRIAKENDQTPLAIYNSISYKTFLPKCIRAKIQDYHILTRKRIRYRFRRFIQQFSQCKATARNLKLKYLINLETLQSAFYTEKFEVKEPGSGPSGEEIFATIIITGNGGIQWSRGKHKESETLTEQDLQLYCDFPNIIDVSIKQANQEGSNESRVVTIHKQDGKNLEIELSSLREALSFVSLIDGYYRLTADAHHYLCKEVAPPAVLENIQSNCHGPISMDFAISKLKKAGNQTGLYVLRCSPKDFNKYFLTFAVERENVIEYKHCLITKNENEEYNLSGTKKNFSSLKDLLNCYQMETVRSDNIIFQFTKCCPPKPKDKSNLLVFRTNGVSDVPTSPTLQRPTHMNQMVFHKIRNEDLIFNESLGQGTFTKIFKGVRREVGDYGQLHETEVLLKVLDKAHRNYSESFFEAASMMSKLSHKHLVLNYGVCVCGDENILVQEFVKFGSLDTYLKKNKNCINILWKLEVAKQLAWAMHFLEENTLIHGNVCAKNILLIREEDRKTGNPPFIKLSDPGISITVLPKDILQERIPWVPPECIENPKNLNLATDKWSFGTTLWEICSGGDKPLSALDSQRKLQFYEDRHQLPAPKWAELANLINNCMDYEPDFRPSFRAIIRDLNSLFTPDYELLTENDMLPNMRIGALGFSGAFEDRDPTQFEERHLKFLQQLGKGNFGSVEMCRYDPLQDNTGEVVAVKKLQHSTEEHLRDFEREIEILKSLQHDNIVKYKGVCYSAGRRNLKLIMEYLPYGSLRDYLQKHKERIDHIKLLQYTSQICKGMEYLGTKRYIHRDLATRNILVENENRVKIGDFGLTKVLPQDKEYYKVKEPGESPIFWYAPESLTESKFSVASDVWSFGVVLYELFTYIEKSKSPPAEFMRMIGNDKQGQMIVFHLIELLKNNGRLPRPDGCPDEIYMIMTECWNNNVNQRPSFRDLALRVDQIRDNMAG", "test": "JAK enzyme inhibition", "assay_type": "biochemical"}, "Sulfation metabolism": {"test": "Sulfation metabolism", "assay_type": "in vitro ADME"}, "[4]": {"test": "Phase 2 clinical study in subjects infected with COVID: safety", "assay_type": "in vivo, human", "source_text": "Compound 1 was well-tolerated. Adverse events and serious adverse events occurred in 34.0% and 9.7% of subjects treated with compound 1, and 41.2% and 15.7% of subjects treated with placebo, respectively. Adverse events of liver abnormalities or disease occurred in 9.7% and 7.8% of subjects treated with compound 1 and placebo, respectively. Serious infections and venous thromboembolism occurred in 1.0% and none of the subjects treated with compound 1, and 2.0% and 4.9% in subjects treated with placebo, respectively."}, "JAK1": {"molecular_target": "JAK1 (Homo sapiens, UniProt P23458)", "sequence (P23458 whole entry)": "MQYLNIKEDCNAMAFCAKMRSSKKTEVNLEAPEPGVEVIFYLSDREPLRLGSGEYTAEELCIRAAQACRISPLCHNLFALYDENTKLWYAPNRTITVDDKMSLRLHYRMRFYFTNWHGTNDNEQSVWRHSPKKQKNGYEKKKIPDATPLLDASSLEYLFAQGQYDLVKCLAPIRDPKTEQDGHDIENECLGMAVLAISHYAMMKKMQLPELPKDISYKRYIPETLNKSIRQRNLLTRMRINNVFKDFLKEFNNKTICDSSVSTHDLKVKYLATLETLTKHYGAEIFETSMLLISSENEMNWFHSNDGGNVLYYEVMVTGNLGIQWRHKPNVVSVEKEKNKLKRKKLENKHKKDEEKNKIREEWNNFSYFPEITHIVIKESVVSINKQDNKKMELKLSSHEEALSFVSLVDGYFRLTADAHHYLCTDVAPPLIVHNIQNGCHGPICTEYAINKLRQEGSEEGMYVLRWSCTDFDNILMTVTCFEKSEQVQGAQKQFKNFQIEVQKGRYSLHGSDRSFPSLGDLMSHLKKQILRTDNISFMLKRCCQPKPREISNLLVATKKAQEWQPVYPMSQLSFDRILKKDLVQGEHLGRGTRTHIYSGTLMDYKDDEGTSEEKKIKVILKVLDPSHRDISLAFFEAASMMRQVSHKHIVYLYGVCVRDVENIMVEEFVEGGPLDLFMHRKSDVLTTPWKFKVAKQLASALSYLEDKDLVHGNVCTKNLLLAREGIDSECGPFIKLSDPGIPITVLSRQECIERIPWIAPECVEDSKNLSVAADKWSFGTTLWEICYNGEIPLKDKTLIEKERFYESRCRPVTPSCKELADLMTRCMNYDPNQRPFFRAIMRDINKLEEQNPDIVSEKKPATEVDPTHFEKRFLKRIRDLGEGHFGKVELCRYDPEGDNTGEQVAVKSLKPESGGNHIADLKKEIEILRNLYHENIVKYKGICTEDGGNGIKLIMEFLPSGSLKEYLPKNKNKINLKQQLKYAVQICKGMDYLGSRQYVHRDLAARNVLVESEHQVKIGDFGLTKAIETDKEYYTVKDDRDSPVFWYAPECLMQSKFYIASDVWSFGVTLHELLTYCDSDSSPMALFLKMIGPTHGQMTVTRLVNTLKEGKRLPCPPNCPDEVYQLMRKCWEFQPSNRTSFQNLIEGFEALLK", "test": "JAK enzyme inhibition", "assay_type": "biochemical"}, "IFNγ secretion": {"test_system": "IFNγ secretion", "test": "Mixed lymphocyte reaction assay", "assay_type": "cell-based", "source_text": "The mixed lymphocyte reaction assay is an in-vitro assay that mimics transplant rejection."}},
  "data": [
    {"smiles": "CCc1cc(O)ccc1-c1ccc2c(-c3nc4c([nH]3)CN(C(C)C)[C@H](C(=O)N3CC(N(C)C)C3)C4)n[nH]c2c1", "note": "[Compound 1, (S)-(3-(dimethylamino)azetidin-1-yl)(2-(6-(2-ethyl-4-hydroxyphenyl)-1H-indazol-3-yl)-5-isopropyl-4,5,6,7-tetrahydro-3H-imidazo[4,5-c]pyridin-6-yl)methanone]", "values": [
      {"measurement": "inhibition of Abl2", "setting": "Abl2", "value": "potently inhibit"},
      {"measurement": "adverse events, subjects", "setting": "[1]; 2 of 14 subjects, nasal congestion, epistaxis, considered not related to study drug", "value": 14.3, "unit": "%"},
      {"measurement": "safety laboratory measures, electrocardiograms, vital signs, pulse oximetry, spirometry", "setting": "[1]; all administrations", "value": "no clinically relevant changes"},
      {"measurement": "severity of adverse events", "setting": "[1]; all adverse events", "value": "mild severity"},
      {"measurement": "change from baseline at Day 7 in SaO2/FiO2 ratio, 8-point Clinical Status scale categories, proportion alive and respiratory failure-free at Day 28, vs placebo", "setting": "[2]; ITT", "value": "no difference"},
      {"measurement": "RFDs (respiratory failure-free days) from randomization through Day 28, median", "setting": "[2]; ITT, vs placebo 21, p=0.61", "value": 21, "unit": "days"},
      {"measurement": "time to recovery, median", "setting": "[2]; all subjects", "value": 10, "unit": "days"},
      {"measurement": "28-day all-cause mortality, total number of deaths", "setting": "[2]; all subjects, vs placebo 13", "value": 6},
      {"measurement": "28-day all-cause mortality, HR", "setting": "[2]; all subjects, p=0.08", "value": 0.42},
      {"measurement": "time to recovery, HR", "setting": "[2]; all subjects, p=0.12", "value": 1.27},
      {"measurement": "time to recovery, median", "setting": "[2]; post-hoc, baseline CRP <150 mg/L", "value": 10, "unit": "days"},
      {"measurement": "28-day all-cause mortality, HR", "setting": "[2]; post-hoc, baseline CRP <150 mg/L, p=0.009", "value": 0.097},
      {"measurement": "time to recovery, HR", "setting": "[2]; post-hoc, baseline CRP <150 mg/L, p=0.02", "value": 1.48},
      {"measurement": "28-day all-cause mortality, total number of deaths", "setting": "[2]; post-hoc, subjects with baseline CRP <150 mg/L (n=171), vs placebo 9", "value": 1},
      {"measurement": "time to recovery or 28-day all-cause mortality vs placebo", "setting": "[2]; subjects with CRP >150 mg/L (n=30)", "value": "no difference"},
      {"measurement": "neutrophil and hemoglobin reductions, lipid changes", "setting": "[3]; inhaled administration", "value": "not observed"},
      {"measurement": "safety and tolerability", "setting": "[3]; single and multiple doses of 1, 3, and 10 mg, healthy adult participants", "value": "safe and well tolerated"},
      {"measurement": "inhibition of TYK2", "setting": "TYK2", "value": "potent inhibitor"},
      {"measurement": "inhibition of IL-6 signaling", "setting": "IL-6 signaling", "value": "shown to inhibit"},
      {"measurement": "inhibition of JAK2", "setting": "JAK2", "value": "potent inhibitor"},
      {"measurement": "sulfation metabolism compared to corresponding fluorinated analog", "setting": "Sulfation metabolism", "value": "significantly less sulfation metabolism"},
      {"measurement": "tolerability", "setting": "[4]", "value": "well-tolerated"},
      {"measurement": "serious infections, subjects", "setting": "[4]; placebo 2.0%", "value": 1.0, "unit": "%"},
      {"measurement": "venous thromboembolism, subjects", "setting": "[4]; placebo 4.9%", "value": "none"},
      {"measurement": "adverse events of liver abnormalities or disease, subjects", "setting": "[4]; placebo 7.8%", "value": 9.7, "unit": "%"},
      {"measurement": "serious adverse events, subjects", "setting": "[4]; placebo 15.7%", "value": 9.7, "unit": "%"},
      {"measurement": "adverse events, subjects", "setting": "[4]; placebo 41.2%", "value": 34.0, "unit": "%"},
      {"measurement": "inhibition of JAK1", "setting": "JAK1", "value": "potent inhibitor"},
      {"measurement": "inhibition of IFNγ secretion", "setting": "IFNγ secretion", "value": "effectively inhibit"}
    ]}
  ]
}
